Assay results taken from patent publication US20240043448A1, “Small Molecule Inhibitors of KRAS G12C Mutant” (Merck Sharp & Dohme LLC, priority 2019, published 2024).
Read-outs that look alike come from different tables or passages of the source.

Assays:
phospho-ERK = test: Cellular phospho-ERK assay; type: cell-based; settings: NCI-H358 cells, 2 hour incubation, ratio of p-Erk vs total Erk, read-out: IC50 (nM) pERK (Cell)
In short: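 NCI-H358 cells seeded overnight, then exposed to compound dose-response titrations for 2 hours at 37° C. in RPMI. Lysates assayed by AlphaLISA SureFire Ultra multiplex for p-Erk and total Erk; ratio p-Erk/total Erk used as readout, IC50 from 4-parameter logistic fit.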

[1] = molecular target: Biotinylated KRAS G12C protein (Homo sapiens (Human), UniProt P01116, C118S/C51S/C80L/G12C); test: SOS-catalyzed nucleotide exchange assay (TR-FRET); type: biochemical; settings: in vitro apparent potency; preincubation time of 60 minutes prior to addition of SOS
In short: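 Biotinylated KRAS G12C preloaded with Bodipy-GDP and Tb-streptavidin, then incubated with compound (10-point, 3-fold series) for 60 min at RT. Exchange started with SOS and GTP for 60 min. TR-FRET 520/495 ratio normalised to DMSO and saturating-inhibitor controls; four-parameter fit.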

Sequence of Biotinylated KRAS G12C protein (P01116 other isoform, or with tags, fused parts or gaps, stated change not applied): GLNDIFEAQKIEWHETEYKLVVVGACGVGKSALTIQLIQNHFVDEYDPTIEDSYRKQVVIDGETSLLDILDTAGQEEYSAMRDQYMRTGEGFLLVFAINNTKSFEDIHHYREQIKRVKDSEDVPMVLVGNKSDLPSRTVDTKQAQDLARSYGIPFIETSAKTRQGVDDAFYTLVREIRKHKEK

| IC50 (phospho-ERK) | IC50 [1] | IC50 (phospho-ERK; Homo sapiens, NCI-H358, 2 h) | SMILES |
| --- | --- | --- | --- |
| 23 nM | 4.5 nM |  | C=CC(=O)N1CC(C)N(c2nc(=O)n3c4nc(c(C)cc24)-c2c(F)ccc(F)c2OCCOc2ccnc(C(C)C)c2-3)CC1C [Example 110, 2-[(2S,5R)-2,5-dimethyl-4-(prop-2-enoyl)piperazin-1-yl]-14,17-difluoro-20-methyl-6-(propan-2-yl)-11,12-dihydro-4H-1,18-ethenopyrido[4,3-e]pyrimido[1,6-g][1,4,7,9]benzodioxadiazacyclododecin-4-one] |
|  | 12 nM | 50 nM | [2H]C1([2H])Oc2ccnc(C(C)C)c2-n2c(=O)nc(N3C[C@@H](C)N(C(=O)C=C)C[C@@H]3C)c3cc(F)c(nc32)-c2c(F)ccc(F)c2OC1([2H])[2H] [Example 67, 2-[(2S,5R)-2,5-Dimethyl-4-(prop-2-enoyl)piperazin-1-yl]-14,17,20-trifluoro-6-(propan-2-yl)-11,12-di[(^2H)hydro](11,12-^2H2)-4H-1,18-(ethanediylidene)pyrido [4,3-e]pyrimido[1,6-g][1,4,7,9] benzodioxadiazacyclo-dodecin-4-one] |
